Reference: BigSolDB 2.1

Nc1cccc2c1C(=O)N(C1CCC(=O)NC1=O)C2=O (stereo unspecified)
solubility (mole fraction)
Settings | 278.15 K | 283.15 K | 288.15 K | 293.15 K | 298.15 K | 303.15 K | 308.15 K | 313.15 K | 318.15 K
in acetone | 1.43e-06 | 2e-06 | 2.59e-06 | 3.32e-06 | 4.27e-06 | 5.32e-06 | 6.53e-06 | 7.84e-06 | 9.49e-06
in ethanol | 1.8e-07 | 2.4e-07 | 3.1e-07 | 4.1e-07 | 5.3e-07 | 6.8e-07 | 8.5e-07 | 1.04e-06 | 1.26e-06
in ethyl acetate | 4.5e-07 | 6.6e-07 | 9.3e-07 | 1.21e-06 | 1.55e-06 | 1.95e-06 | 2.38e-06 | 2.96e-06 | 3.62e-06
in isopropanol | 2.3e-07 | 3.4e-07 | 4.8e-07 | 6.3e-07 | 8.1e-07 | 1.02e-06 | 1.26e-06 | 1.56e-06 | 1.9e-06
